Test: gradient 5% acetonitrile 3 min, to 50% in 2 min, to 85% in 15 min, held 3 min, 100 µL/min
Conditions: column: Zorbax Extend-C18 2.1 x 50 mm; eluents: water / acetonitrile, 0.1% formic acid
Procedure, shortened: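 Retention time was recorded from adduct peaks, which were picked computationally and each inspected manually. Pure standards ran in mixtures of ~100 molecules on HPLC coupled to a quadrupole time-of-flight mass spectrometer, in positive and negative ionization mode, through a Zorbax Extend-C18 column (2.1 × 50 mm, 1.8 μm) at 100 μL/min. Eluents were water and acetonitrile, each with 0.1% formic acid.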

RP-LC retention time	SMILES
867 s	COc1ccc(C(=O)Nc2nc(-c3ccc4c(c3)NC(=O)C(C)O4)c(C)s2)cc1OC (stereo unspecified)
751 s	O=C(NC1CCCC1)c1ccc2c(c1)CCN2C(=O)C1CC1
824 s	CSc1ccc(-c2nc3cccc(C)n3c2Nc2ccc(C)cc2)cc1
720 s	CCC(=O)N1CCc2cc(N3CC(C(=O)Nc4ccccc4)CC3=O)ccc21 (stereo unspecified)
907 s	Cc1cc(C)n(-c2ccnc(N3CCC(C(=O)N4CCN(c5ccccc5)CC4)CC3)n2)n1
638 s	COCc1nc2cccnc2n1C1CCN(C(=O)Nc2ccc(OC)c(OC)c2)CC1
763 s	CC(C)N1CCn2cc(S(=O)(=O)NCc3ccc(F)cc3F)cc2C1=O
931 s	Cc1ccc(-c2cc3c4nnc(SCC(=O)Nc5ccc(F)cc5)n4ccn3n2)cc1C
912 s	Cc1ccc(NC(=O)Nc2cccn3nc(C4CC4)nc23)cc1
1050 s	CC(=O)C1=C(C)N(CC2CCCO2)C(=O)C1(NC(=O)c1ccc(C(C)(C)C)cc1)C(F)(F)F (stereo unspecified)
911 s	O=C(NCCC1=CCCCC1)C1CCN(C(=O)c2ncn3c2COC(c2ccc(Cl)cc2)C3)CC1 (stereo unspecified)
696 s	CCCNC(=O)c1cc(-c2ccncc2)cn1Cc1ccc(C)cc1
608 s	CCc1ccccc1NC(=O)Cn1ncc2c(N3CCN(c4ccccn4)CC3)ncnc21
865 s	CC(C)N1C(=O)c2cccnc2Sc2cc(NC(=O)c3c(F)cccc3F)ccc21
846 s	COc1ccc(-c2noc(Cn3cnc4c(oc5ccccc54)c3=O)n2)cc1OC
680 s	O=S(=O)(c1cccc(Cl)c1)N1CCC2(CCN(c3cccnc3)C2)C1 (stereo unspecified)
937 s	O=C(Nc1ccccc1F)N1CCCC1c1nc(-c2ccc(F)cc2F)no1 (stereo unspecified)
789 s	CC(C)OCCCNC(=O)C1CCCN(c2ccc(=O)n(-c3cccc(Cl)c3)n2)C1 (stereo unspecified)
687 s	CCOc1ccccc1NC(=O)Cn1c(CC)nc2c(c1=O)CN(Cc1ccccc1)CC2

RP-LC retention time	SMILES
672 s	O=C(CN1C(=O)C2CCCCN2c2ccc(C(=O)N3CCCC3)cc21)NCC1CCCO1 (stereo unspecified)
870 s	Cc1nc(-c2cc(S(=O)(=O)NCC(=O)NCc3ccccc3Cl)c(C)s2)no1
898 s	O=C(COc1ccc2ccccc2c1)NCC(O)c1ccc(C(F)(F)F)cc1 (stereo unspecified)
1030 s	CCc1ccccc1NC(=O)c1cc(C)n2nccc2n1
859 s	CCc1cccc(NC(=O)Cn2ncc3c(c2=O)N(CC2CC2)C(=O)CS3)c1
873 s	COc1cc(OC)cc(C(=O)Nc2nc(C(=O)NC(C)c3ccccc3)cs2)c1 (stereo unspecified)
821 s	CC(C)(C)c1ccc(-c2nc(N3CCOCC3)c3ccccc3n2)cc1
608 s	COC(=O)CC(NC(=O)N1CCCn2nc(-c3ccncc3)cc2C1)c1ccccc1 (stereo unspecified)
629 s	COc1cc(Cl)c(NC(=O)C2CCN(C(=O)c3cc(-c4ccncc4)n[nH]3)CC2)c(OC)c1
1140 s	Cc1ccc(Cl)cc1NC(=O)Cn1c(C)nc2c(sc3nc(-c4ccccc4)ccc32)c1=O
840 s	Cc1ccc(Cn2c(=O)n(CCNC(=O)c3ccc(C)s3)c3ncccc32)cc1
836 s	COc1cc(NC(=O)Cn2nc(N(C)C)c3ccccc3c2=O)cc(OC)c1
648 s	CCOc1ccc(C(=O)NCC(=O)Nc2nc3ccccc3[nH]2)cc1
691 s	O=C(Nc1ccc2c(c1)OCCO2)C1CCN(S(=O)(=O)c2ccc3[nH]c(=O)ccc3c2)CC1
698 s	CC(C)CNC(=O)CN1C(=O)C2CCCCN2c2ccc(S(=O)(=O)N(C)C)cc21 (stereo unspecified)
1020 s	O=C(c1ccncn1)N1CC(F)(F)C[C@H]1COc1ccc2c(c1)CCC2
654 s	Cc1cc(-c2nnc(NC(=O)c3ccn(C)n3)o2)c(C)o1
604 s	Cc1noc([C@@H]2CN(Cc3ccccc3C(F)(F)F)C[C@H]2CO)n1

Continued, compound first:

SMILES	RP-LC retention time
Cn1cc(CCN2CCN(S(=O)(=O)c3cccc(Cl)c3)CC2)c2cccnc21	650 s
Cc1ccc(S(=O)(=O)NC2CCN(c3ncnc4c3CCC4)C2)cc1 (stereo unspecified)	628 s
COc1ccc2c(c1)-c1nc(NC(=O)c3ccc(Cl)cc3)sc1CC2	1180 s
O=C(Cn1cnc(-c2ccc(F)cc2)cc1=O)NCc1ccco1	684 s
C[C@]12C=CC(=O)C=C1[C@@H](F)C[C@H]1[C@@H]3CC[C@](O)(C(=O)CO)[C@@]3(C)C[C@H](O)[C@@]12F	660 s
O=c1n(Cc2cccc(Br)c2)nc2c(S(=O)(=O)N3CCCCCC3)cccn12	1010 s
O=C(NC1CCCCC1)C1CCN(Cc2noc(-c3ccc(F)cc3)n2)CC1	665 s
CCc1csc(-c2ccc(N3CCN(C(=O)c4ccc(F)c(F)c4)CC3)nc2)n1	955 s
COc1cc(OC)c(OC)cc1CN(C)CCc1ccccn1	593 s
COc1ccc(CNC(=O)C2CCCN(c3cnc4nccnc4c3)C2)cc1OC (stereo unspecified)	710 s
CC1=C(C(=O)OCCc2ccccc2)C(c2cccs2)NC(=O)N1 (stereo unspecified)	821 s
C=CCn1ccc2c(OCC(=O)Nc3ccc4c(c3)OCCO4)cccc2c1=O	818 s
O=c1cc(CO)oc(C(Nc2ccccn2)c2cccc(F)c2)c1O (stereo unspecified)	542 s
COc1ccc(CNC(=O)N2CCC3(C2)C(=O)N(C)c2ccccc23)cc1 (stereo unspecified)	734 s
COc1ccc(NC(=O)Nc2ccc3c(c2)CCN3S(=O)(=O)c2ccc(C)cc2)cc1	953 s
CC(C(=O)N1CC2CN(S(=O)(=O)c3cccc(F)c3)CC(C1)O2)c1ccccc1 (stereo unspecified)	878 s
Cc1cccc(Sc2nccnc2N2CCCC(C(=O)NCCCc3ccccc3)C2)c1 (stereo unspecified)	1190 s
CC(C)n1cc(CN2CC(F)(F)C[C@H]2COc2cccnc2)c2ccccc21	698 s
O=C1CCCc2c1cc(C(=O)NCc1ccccn1)c(=O)n2-c1ccc(C(F)(F)F)cc1	678 s
O=C(Nc1ccc(N2CCOCC2)cc1)C1CCc2sc(C(=O)N3CCCC3)cc2C1 (stereo unspecified)	669 s
O=C(C1CCCN(c2nn3c(=O)c4c(nc3s2)CCCC4)C1)N1CCN(c2ccccc2F)CC1 (stereo unspecified)	868 s
Cc1nn(-c2ccc(F)cc2)c2nc(N3CCCC(C(=O)NCc4ccc(F)cc4)C3)sc12 (stereo unspecified)	1110 s
COc1ccc(NC(=O)Cn2c(C(C)C)nc3c(c2=O)CN(Cc2ccccc2)CC3)cc1	685 s
Cc1ccc2nc(C(=O)NCc3cc(F)ccc3F)cn2c1	655 s
O=S(=O)(c1ccc(F)cc1F)N1CCc2nc(-c3ccc(F)cc3)ncc2C1	1110 s

SMILES	RP-LC retention time
CCOc1nc2ccccc2nc1N1CCCC(C(=O)N2CCN(c3ccc(OC)cc3)CC2)C1 (stereo unspecified)	1190 s
Cc1cc(C(=O)NCCOc2ccc3nnc(-c4ccccc4)n3n2)c(C)o1	698 s
CCCC(NC(=O)c1ccc(F)cc1)C(=O)Nc1nc2ccccc2[nH]1 (stereo unspecified)	690 s
COC(=O)CNC(=O)NCCn1c(-c2ccc(F)cc2)nc2ccccc21	696 s
Cc1ccc(N2CC(C(=O)N3CCCC3c3nc(-c4cccc(C)c4)no3)CC2=O)cc1 (stereo unspecified)	984 s
O=S(=O)(c1cc(-c2nnc(C3CCC3)o2)co1)N1CCN(c2ccccc2)CC1	1050 s
CCOC(=O)c1nc(Nc2ccc(OC(C)C)cc2)c2ccccc2n1	888 s
Fc1ccc(Nc2c(-c3ccc(Br)cc3)nc3cnccn23)cc1	980 s
COC(=O)c1ccccc1NC(=O)Cn1cccc(-c2nc(-c3ccc(Cl)cc3)no2)c1=O	1070 s
Cc1cccc(CNS(=O)(=O)c2ccc(-c3c(C)noc3C)cc2)c1	983 s
CCCn1c(=O)sc2cc(S(=O)(=O)N3CCC(C(=O)Nc4ccc(C)cn4)CC3)ccc21	808 s
CC(C)CC(=O)Nc1ccc(-n2cnc(C(=O)N3CCN(C4CCCCC4)CC3)c2)nc1	620 s
Cc1ccc(NC(=O)N2CCC(n3cnc4ccc(C)cc4c3=O)CC2)c(Cl)c1	865 s
CCCc1cc(N2CCN(C(=O)c3ccc(N(C)C)cc3)CC2)nc2nnc(CC)n12	649 s
O=C(Cc1cccs1)N1CCN(c2nnc3ccc(C(F)(F)F)cn23)CC1	666 s
CCOC(=O)N1CCN(C(=O)CCc2cc3cc(OC)ccc3[nH]c2=O)CC1	662 s
COc1c2c(c(OC)c3c1c(=O)c1ccccc1n3C)OCO2	767 s
CCOc1ccc2nc(C(=O)NCc3cccc(Br)c3)cn2n1	944 s
COc1cc(O)ccc1-c1nc2cc(C)ccn2c1Nc1ccccc1C	673 s
Cn1nc(-c2ccncc2)nc1C1CN(S(=O)(=O)c2cccc(C(F)(F)F)c2)C1	715 s
Cc1oc(-c2[nH]ncc2C(=O)N(C)C)cc1S(=O)(=O)Nc1ccccc1F	658 s
CCOC(=O)Nc1c(Cl)n(C)c(=O)n(C)c1=O	648 s
Cc1cccc(NC(=O)N2CCc3c(c(-c4nnc(-c5ccccc5Cl)o4)nn3C)C2)c1	902 s
CC(C)NC(=O)Cn1ccn2nc(-c3ccccc3)c(CO)c2c1=O	666 s

— the METLIN SMRT retention time set (Domingo-Almenara et al. 2019)
